US20230295234A1, “ANTIMICROBIAL PEPTIDOMIMETICS” (SPEXIS AG, priority 2020, published 2023)
Read-outs that look alike come from different tables or passages of the source. Bridge positions count the residues as written; N and C are the ends. Square brackets hold non-standard residues; d marks the D form. Peptide text beside a SMILES is read from it. Gly(N-2-aminoethyl) = NCCNCC(=O)O; Pen = CC(C)(S)[C@H](N)C(=O)O; dDab = NCC[C@@H](N)C(=O)O; Nle = CCCC[C@H](N)C(=O)O; Orn = NCCC[C@H](N)C(=O)O; Dab = NCC[C@H](N)C(=O)O

Key:
[1] = test system: human red blood cells (hRBC); experiment: Hemolysis of human red blood cells; format: cell-based; conditions: red cells of human, 1 h
Summary of the method: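 Percent hemolysis is OD540 of peptide-treated supernatant relative to water-lysed cells. Each peptide was tested at 200 μg/mL against 20% (v/v) washed human erythrocytes. Incubation was 1 h at 37 °C, 300 rpm.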

[2] = test system: Escherichia coli ATCC 25922; conditions: ATCC 25922
Summary of the method: (§1)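 Peptides were made up as 1 mg/mL stocks in sterile water. Colonies in 0.85% saline were set to 0.5 McFarland, then diluted in cation-adjusted Mueller-Hinton II broth to about 5×10^5 CFU/mL. Inoculum was combined with two-fold serial peptide dilutions in water containing 0.002% (final) polysorbate 80.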

[3] = test system: Escherichia coli MCR-1 Af 45
Summary of the method: as §1

[4] = test system: Klebsiella pneumoniae SSI3010; conditions: SSI3010
Summary of the method: as §1

[5] = Mueller-Hinton broth II, 18-20 hours at 35° C.

In the case of CC[C@H](C)[C@H](NC(=O)[C@@H]1C[C@@H](O)CN1C(=O)[C@@H](N)C(C)C)C(=O)N[C@@H](CCCNC(=N)N)C(=O)N[C@@H](Cc1ccc(O)cc1)C(=O)N[C@@H]1C(=O)N[C@@H](CC(N)=O)C(=O)N[C@@H](CCCNC(=N)N)C(=O)N[C@@H](CCN)C(=O)N[C@@H]([C@@H](C)O)C(=O)N[C@H](CCN)C(=O)N[C@@H](CCCCN)C(=O)N[C@H](C(=O)N[C@@H](CCN)C(=O)N[C@@H](CCCNC(=N)N)C(=O)N[C@@H](Cc2ccc(O)cc2)C(=O)O)CSSC1(C)C [Example 184] (HELM PEPTIDE1{V.[Hyp].I.R.Y.[Pen].N.R.[Dab].T.[NCC[C@@H](N[*:1])C(=O)[*:2]].K.C.[Dab].R.Y}$PEPTIDE1,PEPTIDE1,6:R3-13:R3$$$V2.0), the “Hemolysis at 0.2 g/L” value [1] is reported as 0%, the “Escherichia coli ATCC 25922 MIC” value [2] is reported as 0.25 µg/mL and the “Escherichia coli MCR-1 Af 45 MIC” value [3, 5] is reported as 0.0625 µg/mL. For the same compound, the “Klebsiella pneumoniae SSI3010 MIC” value [4] was 0.25 µg/mL.
CC[C@H](C)[C@H](NC(=O)[C@@H]1C[C@@H](O)CN1C(=O)[C@@H](NC(=O)[C@@H]1C[C@@H](N)CN1C(=O)[C@@H](N)CCCCN)C(C)C)C(=O)N[C@H](C(=O)N[C@@H](Cc1ccc(O)cc1)C(=O)N[C@@H]1C(=O)N[C@@H](CC(N)=O)C(=O)N[C@@H](CCCNC(=N)N)C(=O)N[C@@H](CCN)C(=O)N[C@@H]([C@@H](C)O)C(=O)N[C@H](CCN)C(=O)N[C@@H](CCCCN)C(=O)N[C@H](C(=O)N[C@@H](CCN)C(=O)N[C@@H](CCCNC(=N)N)C(=O)N[C@@H](Cc2ccc(O)cc2)C(=O)O)CSSC1(C)C)[C@@H](C)O [Example 50, Lys-Pro((4R)NH2)-Val-Hyp-Ile-Thr-Tyr-Pen-Asn-Arg-Dab-Thr-^DDab-Lys-Cys-Dab-Arg-Tyr] (HELM PEPTIDE1{K.[N[C@@H]1C[C@@H](C(=O)[*:2])N([*:1])C1].V.[Hyp].I.T.Y.[Pen].N.R.[Dab].T.[NCC[C@@H](N[*:1])C(=O)[*:2]].K.C.[Dab].R.Y}$PEPTIDE1,PEPTIDE1,8:R3-15:R3$$$V2.0) was tested, and the “Hemolysis at 0.2 g/L” value [1] was 0%, the “Escherichia coli ATCC 25922 MIC” value [2] was 0.125 µg/mL and the “Escherichia coli MCR-1 Af 45 MIC” value ([3]; MCR-1 Af 45) was 0.0625 µg/mL. The “Klebsiella pneumoniae SSI3010 MIC” value [4] was 0.125 µg/mL.
With CC[C@H](C)[C@H](NC(=O)[C@@H]1C[C@@H](O)CN1C(=O)[C@@H](NC(=O)CNCCCCN)C(C)C)C(=O)N[C@H](C(=O)N[C@@H](Cc1ccc(O)cc1)C(=O)N[C@@H]1C(=O)N[C@@H](CC(N)=O)C(=O)N[C@@H](CCCNC(=N)N)C(=O)N[C@@H](CCN)C(=O)N[C@@H]([C@@H](C)O)C(=O)N[C@H](CCN)C(=O)N[C@@H](CCCCN)C(=O)N[C@H](C(=O)N[C@@H](CCN)C(=O)N[C@@H](CCCNC(=N)N)C(=O)N[C@@H](Cc2ccc(O)cc2)C(=O)O)CSSC1(C)C)[C@@H](C)O [Example 34, Nlys-Val-Hyp-Ile-Thr-Tyr-Pen-Asn-Arg-Dab-Thr-^DDab-Lys-Cys-Dab-Arg-Tyr] (HELM PEPTIDE1{[NCCCCNCC(=O)[*:2]].V.[Hyp].I.T.Y.[Pen].N.R.[Dab].T.[NCC[C@@H](N[*:1])C(=O)[*:2]].K.C.[Dab].R.Y}$PEPTIDE1,PEPTIDE1,7:R3-14:R3$$$V2.0) the “Hemolysis at 0.2 g/L” value [1] was 0%, the “Escherichia coli ATCC 25922 MIC” value [2] was 0.125 µg/mL and the “Escherichia coli MCR-1 Af 45 MIC” value ([3]; MCR-1 Af 45) was 0.125 µg/mL. The “Klebsiella pneumoniae SSI3010 MIC” value [4] was 0.125 µg/mL.
For CCCC[C@H](NC(=O)[C@H](CCCNC(=N)N)NC(=O)[C@H](CCCN)NC(=O)[C@@H]1CSSC(C)(C)[C@H](NC(=O)[C@H](Cc2ccc(O)cc2)NC(=O)[C@@H](NC(=O)[C@@H](NC(=O)CN(CCN)C(=O)[C@@H](NC(=O)CNCCN)C(C)C)[C@@H](C)CC)[C@@H](C)CC)C(=O)N[C@@H](CC(N)=O)C(=O)N[C@@H](CCCNC(=N)N)C(=O)N[C@@H](CCN)C(=O)N[C@@H]([C@@H](C)O)C(=O)N[C@H](CCN)C(=O)N[C@@H](CCCCN)C(=O)N1)C(=O)O [Example 15, Ndab-Val-Ndab-Ile-Ile-Tyr-Pen-Asn-Arg-Dab-Thr-^DDab-Lys-Cys-Orn-Arg-Nle] (H-[Gly(N-2-aminoethyl)]V[Gly(N-2-aminoethyl)]IIY[Pen]NR[Dab]T[dDab]KC[Orn]R[Nle]-OH; disulfide 7-14), the “Hemolysis at 0.2 g/L” value [1] was 0%, the “Escherichia coli ATCC 25922 MIC” value [2] was 0.125 µg/mL and the “Escherichia coli MCR-1 Af 45 MIC” value ([3]; MCR-1 Af 45) was 0.125 µg/mL. The “Klebsiella pneumoniae SSI3010 MIC” value [4] was 0.25 µg/mL.
With CC[C@H](C)[C@H](NC(=O)[C@@H]1C[C@@H](O)CN1C(=O)[C@@H](NC(=N)N)C(C)C)C(=O)N[C@@H](Cc1ccc(O)cc1)C(=O)N[C@@H](Cc1ccc(O)cc1)C(=O)N[C@@H]1C(=O)N[C@@H](CC(N)=O)C(=O)N[C@@H](CCCNC(=N)N)C(=O)N[C@@H](CCN)C(=O)N[C@@H]([C@@H](C)O)C(=O)N[C@H](CCN)C(=O)N[C@@H](CCCCN)C(=O)N[C@H](C(=O)N[C@@H](CCC(N)=O)C(=O)N[C@@H](CCCNC(=N)N)C(=O)N[C@@H](Cc2ccc(O)cc2)C(=O)O)CSSC1(C)C [Example 192] (HELM PEPTIDE1{[CC(C)[C@H](NC(=N)N)C(=O)[*:2]].[Hyp].I.Y.Y.[Pen].N.R.[Dab].T.[NCC[C@@H](N[*:1])C(=O)[*:2]].K.C.Q.R.Y}$PEPTIDE1,PEPTIDE1,6:R3-13:R3$$$V2.0) the “Hemolysis at 0.2 g/L” value [1] was 0%, the “Escherichia coli ATCC 25922 MIC” value [2] was 0.25 µg/mL and the “Escherichia coli MCR-1 Af 45 MIC” value [3, 5] was 0.25 µg/mL. For the same compound, the “Klebsiella pneumoniae SSI3010 MIC” value [4] was 0.25 µg/mL.
For CC[C@H](C)[C@H](NC(=O)[C@@H]1C[C@@H](O)CN1C(=O)[C@@H](NC(=O)CNCCCN)C(C)C)C(=O)N[C@H](C(=O)N[C@@H](Cc1ccc(O)cc1)C(=O)N[C@@H]1C(=O)N[C@@H](CC(N)=O)C(=O)N[C@@H](CCCNC(=N)N)C(=O)N[C@@H](CCN)C(=O)N[C@@H]([C@@H](C)O)C(=O)N[C@H](CCN)C(=O)N[C@@H](CCCCN)C(=O)N[C@H](C(=O)N[C@@H](CCN)C(=O)N[C@@H](CCCNC(=N)N)C(=O)N[C@@H](Cc2ccc(O)cc2)C(=O)O)CSSC1(C)C)[C@@H](C)O [Example 33, Norn-Val-Hyp-Ile-Thr-Tyr-Pen-Asn-Arg-Dab-Thr-^DDab-Lys-Cys-Dab-Arg-Tyr] (HELM PEPTIDE1{[NCCCNCC(=O)[*:2]].V.[Hyp].I.T.Y.[Pen].N.R.[Dab].T.[NCC[C@@H](N[*:1])C(=O)[*:2]].K.C.[Dab].R.Y}$PEPTIDE1,PEPTIDE1,7:R3-14:R3$$$V2.0), the “Hemolysis at 0.2 g/L” value [1] was 0%, the “Escherichia coli ATCC 25922 MIC” value [2] was 0.125 µg/mL and the “Escherichia coli MCR-1 Af 45 MIC” value ([3]; MCR-1 Af 45) was 0.125 µg/mL. The “Klebsiella pneumoniae SSI3010 MIC” value [4] was 0.25 µg/mL.
In the case of CC[C@H](C)[C@H](NC(=O)[C@@H](NC(=O)[C@@H]1C[C@@H](O)CN1C(=O)[C@@H](NC(=O)[C@@H]1C[C@@H](O)CN1C(=O)[C@H](CCCCN)NC(=O)[C@@H](N)CCCCN)C(C)C)[C@@H](C)CC)C(=O)N[C@@H](Cc1ccc(O)cc1)C(=O)N[C@@H]1C(=O)N[C@@H](CC(N)=O)C(=O)N[C@@H](CCCNC(=N)N)C(=O)N[C@@H](CCN)C(=O)N[C@@H]([C@@H](C)O)C(=O)N[C@H](CCN)C(=O)N[C@@H](CCCCN)C(=O)N[C@H](C(=O)N[C@@H](CCN)C(=O)N[C@@H](CCCNC(=N)N)C(=O)N[C@@H](Cc2ccc(O)cc2)C(=O)O)CSSC1(C)C [Example 116, Lys-Lys-Hyp-Val-Hyp-Ile-Ile-Tyr-Pen-Asn-Arg-Dab-Thr-^DDab-Lys-Cys-Dab-Arg-Tyr] (HELM PEPTIDE1{K.K.[Hyp].V.[Hyp].I.I.Y.[Pen].N.R.[Dab].T.[NCC[C@@H](N[*:1])C(=O)[*:2]].K.C.[Dab].R.Y}$PEPTIDE1,PEPTIDE1,9:R3-16:R3$$$V2.0), the “Hemolysis at 0.2 g/L” value [1] is reported as 0%, the “Escherichia coli ATCC 25922 MIC” value [2] is reported as 0.0625 µg/mL and the “Escherichia coli MCR-1 Af 45 MIC” value ([3]; MCR-1 Af 45) is reported as 0.0625 µg/mL. The “Klebsiella pneumoniae SSI3010 MIC” value [4] was 0.125 µg/mL.
In the case of CC[C@H](C)[C@H](NC(=O)[C@@H]1CCCN1C(=O)[C@@H](NC(=O)[C@@H]1CCCN1C(=O)[C@H](CCCNC(=N)N)NC(=O)[C@@H](N)CCCCN)C(C)C)C(=O)N[C@@H](CCCNC(=N)N)C(=O)N[C@@H](Cc1ccc(O)cc1)C(=O)N[C@@H]1C(=O)N[C@@H](CC(N)=O)C(=O)N[C@@H](CCCNC(=N)N)C(=O)N[C@@H](CCN)C(=O)N[C@@H]([C@@H](C)O)C(=O)N[C@H](CCN)C(=O)N[C@@H](CCCCN)C(=O)N[C@H](C(=O)N[C@@H](CCN)C(=O)N[C@@H](CCCNC(=N)N)C(=O)N[C@@H](Cc2ccc(O)cc2)C(=O)O)CSSC1(C)C [Example 86] (HELM PEPTIDE1{K.R.P.V.P.I.R.Y.[Pen].N.R.[Dab].T.[NCC[C@@H](N[*:1])C(=O)[*:2]].K.C.[Dab].R.Y}$PEPTIDE1,PEPTIDE1,9:R3-16:R3$$$V2.0), the “Hemolysis at 0.2 g/L” value [1] is reported as 0%, the “Escherichia coli ATCC 25922 MIC” value [2] is reported as 0.125 µg/mL and the “Escherichia coli MCR-1 Af 45 MIC” value ([3]; MCR-1 Af 45) is reported as at most 0.03125 µg/mL. The “Klebsiella pneumoniae SSI3010 MIC” value [4] was 0.125 µg/mL.
